Here are results for six compounds from patent publication US8354433B2, “Anti-inflammatory agents as virostatic compounds” (4SC AG, priority 2009, dated 2013).

Like-named read-outs stand apart in the source and are kept apart here. Bounds are passed on as bounds.

Series [1] deals with dihydroorotate dehydrogenase (DHODH) (Homo sapiens, UniProt Q02127). As to the kind of experiment: DHODH inhibition, in vitro assay. Type of series: biochemical.
The subject of series [2] is HIV-191US005. Put plainly: Anti-HIV efficacy in fresh human PBMCs (RT activity and p24 ELISA). Type of series: cell-based, HIV-1. Particulars: Human immunodeficiency virus 1, PBMC, 168 h. In general terms: In an ELISA, binding on a coated surface is turned into a signal by an enzyme label.
The subject of series [3] is HCV subgenomic replicon of genotype 1b. As to the kind of experiment: microbe, parasite or virus in culture. Particulars: Hepatitis C virus, 24 h, read-out: Antiviral Activity EC50/nM. Type of series: cell-based.
For series [4], the system named is HBV. Put plainly: Anti-HBV evaluation with HepG2 2.2.15 cells (extracellular HBV DNA, qPCR). The settings on record: Hepatitis B virus, read-out: Antiviral Activity EC50. Type of series: cell-based. As for the experimental part: Compounds were solubilized in DMSO in a concentration of 40 mM. (−)-2′-Desoxy-3′-thiacytidin (3TC) was used as the positive antiviral controls. The high-test concentrations were 10 μM for 4SC compounds and 1 μM for 3TC.
Briefly, HepG2-2.2.15 cells were plated in 96-well microtiter plates. Only the interior wells were utilized to reduce “edge effects” observed during cell culture; the exterior wells were filled with complete medium to help minimize sample evaporation. After 16-24 hours the confluent monolayer of HepG2-2.2.15 cells was washed and the medium was replaced with complete medium containing various concentrations of a test compound in triplicate. 3TC was used as the positive control, while media alone was added to cells as a negative control. Three days later the culture medium was replaced with fresh medium containing the appropriately diluted drug. Six days following the initial administration of the test compound, the cell culture supernatant was collected, treated with pronase and then used in a quantitative qPCR TaqMan assay. Antiviral activity was calculated from the reduction in HBV DNA levels (IC50). Cell Titer 96 ®AQueous One Solution Cell Proliferation kit (Promega, Madison, Wis.) was used to measure cell viability which is used to calculate toxicity (TC50). The therapeutic index (TI) was calculated as TC50/IC50

Series [5] is described as follows: Cell viability in HepG2-2.2.15 cells (Cell Titer 96). Particulars: human, six days, read-out: TC50. Type of series: cell-based. Here is the method: Anti-HBV assay was performed as described in Korba, B F and Milman, G., 1991 (A cell culture assay for compound which inhibits hepatitis B virus replication. Antiviral Res. 15: 217-228) and in Korba, B F and Gerin, J L., 1992 (Use of a standardized cell culture assay to assess activities of nucleoside analogs again hepatitis B virus replication. Antiviral Res. 19: 55-70) with modifications to measure extracellular HBV DNA copy with real-time PCR (qPCR/TaqMan). Briefly, HepG2-2.2.15 cells were plated in 96-well microtiter plates. Only the interior wells were utilized to reduce “edge effects” observed during cell culture; the exterior wells were filled with complete medium to help minimize sample evaporation. After 16-24 hours the confluent monolayer of HepG2-2.2.15 cells was washed and the medium was replaced with complete medium containing various concentrations of a test compound in triplicate. 3TC was used as the positive control, while media alone was added to cells as a negative control. Three days later the culture medium was replaced with fresh medium containing the appropriately diluted drug. Six days following the initial administration of the test compound, the cell culture supernatant was collected, treated with pronase and then used in a quantitative qPCR TaqMan assay. Antiviral activity was calculated from the reduction in HBV DNA levels (IC50). Cell Titer 96 ®AQueous One Solution Cell Proliferation kit (Promega, Madison, Wis.) was used to measure cell viability which is used to calculate toxicity (TC50). The therapeutic index (TI) was calculated as TC50/IC50

For series [6], the system named is RSV Strain Long. Put plainly: microbe, parasite or virus in culture. Type of series: cell-based. The settings on record: human respiratory syncytial virus, Vero, read-out: Antiviral Activity EC50.
Series [7] deals with DENV Type 2 (New Guinea). As to the kind of experiment: microbe, parasite or virus in culture. Type of series: cell-based. The settings on record: Dengue virus, Vero C1008, read-out: Antiviral Activity EC50.
For series [8], the system named is YFV Strain 17D. As to the kind of experiment: microbe, parasite or virus in culture. Type of series: cell-based. Particulars: Yellow fever virus, Vero, read-out: Antiviral Activity EC50.
For series [9], the system named is WNV Strain NY-99. As to the kind of experiment: microbe, parasite or virus in culture. Type of series: cell-based. The settings on record: West Nile virus, Vero, read-out: Antiviral Activity EC50.
In series [10] the test system is Influenza Virus (H7N7). Put plainly: microbe, parasite or virus in culture. Type of series: cell-based, avian influenza virus (Fowl Plaque Virus. Particulars: unidentified influenza virus, H7N7, A549, 16 h; for inhibition at 30 µM: read-out: Antiviral Activity % Inhibition.
Series [11] relates to HCMV AD 169-GFP. Put plainly: microbe, parasite or virus in culture. Type of series: cell-based, Human Cytomegalovirus. The settings on record: Human betaherpesvirus 5, Fibroblast, 168 h, read-out: Antiviral Activity EC50.
A short description of series [12]: in vitro. Particulars: human.
The test system of series [13] is human PBMCs. Put plainly: MTS cytotoxicity in human PBMCs. The settings on record: seven days.
Series [14] concerns ET cell line (luc-ubi-neo/ET), Huh7. As to the kind of experiment: CytoTox-1 cytotoxicity in ET cells. The settings on record: 24 h, cell unit μM.
Series [15] relates to Ebola Virus. As to the kind of experiment: microbe, parasite or virus in culture. Type of series: cell-based. The settings on record: Zaire ebolavirus, Vero, read-out: Antiviral Activity % Inhibition.
Series [16] can be described thus: in vitro. Particulars: African green monkey.
A short description of series [17]: in vitro. Particulars: African green monkey. This is another data set of the same source.
The nature of series [18]: in vitro. Particulars: African green monkey. This is another data set of the same source.
For series [19], the system named is Vero cells. Particulars: African green monkey.
The test system of series [20] is Vero cells. The settings on record: African green monkey. The source holds these as a separate data set.
In series [21] the test system is Vero cells. Particulars: African green monkey. The source holds these as a separate data set.
[22] abbreviates: Table 3, read-out: DHODH IC50/nM.
[23] abbreviates: Table 4, read-out: DHODH IC50/nM.
Where [24] appears, read: Table 5, read-out: DHODH IC50/nM.
[25] abbreviates: Table 6, read-out: DHODH IC50/nM.
[26] abbreviates: Table 7, read-out: DHODH IC50/nM.
The mark [27] stands for this setting: Table 8, read-out: DHODH IC50/nM.
[28] abbreviates: Endpoint RT, seven days, read-out: EC50/nM.
Where [29] appears, read: Endpoint RT, seven days, read-out: EC90/nM.
Setting [30] is: Endpoint p24, seven days, read-out: EC50/nM.
[31] abbreviates: Endpoint p24, seven days, read-out: EC90/nM.
[32] abbreviates: 144 h, HepG2 2.2.15 cells, HBV DNA, six days.

Sequence of dihydroorotate dehydrogenase (DHODH) (Q02127 whole entry): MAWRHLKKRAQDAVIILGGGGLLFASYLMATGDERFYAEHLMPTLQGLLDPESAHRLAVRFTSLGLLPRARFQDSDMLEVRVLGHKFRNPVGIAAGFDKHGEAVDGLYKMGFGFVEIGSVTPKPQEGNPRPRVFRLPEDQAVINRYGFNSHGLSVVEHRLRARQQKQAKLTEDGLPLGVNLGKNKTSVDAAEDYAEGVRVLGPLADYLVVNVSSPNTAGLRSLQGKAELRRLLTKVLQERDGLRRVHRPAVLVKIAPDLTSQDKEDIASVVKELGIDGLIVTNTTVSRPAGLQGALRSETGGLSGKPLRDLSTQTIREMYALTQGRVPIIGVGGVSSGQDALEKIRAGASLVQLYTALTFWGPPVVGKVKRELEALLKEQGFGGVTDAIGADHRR

As to `O=C(Nc1c(F)c(F)c(-c2cccc(OC(F)(F)F)c2)c(F)c1F)c1ccsc1C(=O)O` [Compound 1, 3-(2,3,5,6-Tetrafluoro-3′-trifluoromethoxy-biphenyl-4-ylcarbamoyl)-thiophene-2-carboxylic acid], the IC50 in [1], in series [1] (setting [22]), in series [1] (setting [23]), in series [1] (setting [24]), in series [1] (setting [25]) and in series [1] (setting [26]) was under 20 nM in each case. Also, the IC50 in [1] (setting [27]) was under 20 nM; in [1] (Table 10, read-out: DHODH IC50/nM), under 20 nM; in series [1] (read-out: DHODH IC50/nM, Table 2), under 20 nM. The EC50 in series [2] (setting [28]) came to 120 nM; in series [2] (setting [30]), 170 nM; in series [3], 23 nM; in [4] (setting [32]), 4800 nM; in series [6], 2100 nM; in series [7] it was 72 nM. In addition, the EC50 is 232 nM in [8], 735 nM in series [9], about 1500 nM in series [10] and 780 nM in [11]. The EC90 in series [2] (setting [29]) and in series [2] (setting [31]) was 300 nM throughout. In addition, the CC50 at 6 days in series [5] was over 10000 nM. Besides, the CC50 at 7 days in series [12] was over 10000 nM. This compound returned a TC50/nM in [13] of over 100000 nM. In series [14], this compound displayed a TC50 of over 100 µM.

Regarding `O=C(O)C1=C(C(=O)Nc2ccc(OCc3c(F)cccc3Cl)c(Cl)c2)CCC1` [Compound 3, 2-[3-Chloro-4-(2-chloro-6-fluoro-benzyloxy)-phenylcarbamoyl]-cyclopent-1-enecarboxylic acid], the IC50 is under 20 nM in [1] (DHODH IC50/nM, Table 1); under 20 nM in series [1] (DHODH IC50/nM, Table 7); under 20 nM in series [1] (Table 2, read-out: DHODH IC50/nM); under 20 nM in [1] (setting [22]); under 20 nM in [1] (setting [23]); under 20 nM in series [1] (setting [24]). For the same compound, in series [1] (setting [25]), the IC50 is under 20 nM. The EC50 in series [2] (setting [28]) is 190 nM; in series [2] (setting [30]), 190 nM; in series [3] it was 500 nM; in [4] (setting [32]), over 10000 nM; in series [6], over 10000 nM; in series [7], 83 nM. For the same compound, the EC50 in series [8] is 2190 nM; in series [9] it was over 10000 nM. Besides, the EC90 in series [2] (setting [29]) stood at 700 nM; in [2] (setting [31]), 630 nM. Also, the CC50 at 6 days in series [5] was over 10000 nM. In series [13], this compound gave a TC50/nM of 44800 nM.

As for `O=C(O)C1=C(C(=O)Nc2c(F)c(F)c(-c3cccc(OC(F)(F)F)c3)c(F)c2F)CCC1` [Compound 4, 2-(2,3,5,6-Tetrafluoro-3′-trifluoromethoxy-biphenyl-4-ylcarbamoyl)-cyclopent-1-enecarboxylic acid], the IC50 is under 20 nM in series [1] (DHODH IC50/nM, Table 1); under 20 nM in series [1] (DHODH IC50/nM, Table 2); under 20 nM in series [1] (DHODH IC50/nM, Table 3); under 20 nM in series [1] (DHODH IC50/nM, Table 4); under 20 nM in series [1] (DHODH IC50/nM, Table 7); under 20 nM in series [1] (setting [24]). Moreover, the IC50 in series [1] (setting [25]) is under 20 nM; in series [1] (setting [27]), under 20 nM; in [1] (Table 9, read-out: DHODH IC50/nM), under 20 nM. In addition, the EC50 is 60 nM in series [2] (setting [28]); 80 nM in series [2] (setting [30]); 80 nM in [3]; over 10000 nM in series [4] (HepG2 2.2.15, 144 h); 2150 nM in [6]; 67 nM in [7]. The EC50 in [8] is 681 nM; in series [9], over 10000 nM; in series [10], about 3000 nM. For the same compound, the EC90 in series [2] (setting [29]) stood at 210 nM; in [2] (setting [31]) it was 240 nM. Besides, in series [5], the CC50 at 6 days was over 10000 nM. In addition, the inhibition at 30 µM in series [10] is over 90%. In addition, the inhibition at 31.6 µM in series [15] was over 90%. The inhibition at 100 µM in series [15] was over 98%. Also, the TC50/nM in series [13] amounted to 42400 nM.

For `COc1cccc(-c2ccc(NC(=O)C3=C(C(=O)O)CCC3)c(F)c2)c1` [Compound 6, 2-(3-Fluoro-3′-methoxy-biphenyl-4-ylcarbamoyl)-cyclopent-1-enecarboxylic acid], the EC50 was found to be 2190 nM in series [2] (read-out: EC50/nM, Endpoint RT, seven days); 1970 nM in series [2] (read-out: EC50/nM, Endpoint p24, seven days); 4640 nM in series [3]. The EC90 amounted to 6110 nM in [2] (read-out: EC90/nM, Endpoint RT, seven days) and 6250 nM in series [2] (read-out: EC90/nM, Endpoint p24, seven days). In addition, the inhibition at 30 µM in [10] is over 80%. Also, the inhibition at 31.6 µM in [15] worked out at 90%. The inhibition at 100 µM in [15] is over 98%. In [13], this compound gave a TC50/nM of over 100000 nM.

On to `O=C(Nc1c(F)cc(-c2cccc(OC(F)(F)F)c2)cc1F)c1ccsc1C(=O)O` [Compound 17, 3-(3,5-difluoro-3′-(trifluoromethoxy)biphenyl-4-ylcarbamoyl)thiophene-2-carboxylic acid], for which the IC50 in series [1] (DHODH IC50/nM, Table 5) is under 20 nM; in series [1] (setting [22]) it was under 20 nM; in [1] (setting [23]), under 20 nM; in [1] (setting [25]), under 20 nM; in series [1] (setting [26]), under 20 nM; in [1] (setting [27]) it was under 20 nM. For the same compound, the EC50 in [4] (setting [32]) was 6400 nM; in series [6], over 10000 nM; in series [7], over 10000 nM; in [8], 2250 nM; in series [9], 6390 nM; in series [10] it was about 3000 nM. In series [5], the CC50 at 6 days is over 10000 nM. Also, the CC50 in [16], in series [17] and in series [18] was over 10000 nM in each case.

On to `NC(=O)c1ncn([C@@H]2O[C@H](CO)[C@@H](O)[C@H]2O)n1` [Ribavirin, reference compound], for which the EC50 in [6] came to 7.95 µg/mL; in series [7] it was 26.5 µg/mL; in [8], 7.33 µg/mL; in series [9], 22 µg/mL. For the same compound, the TC50 in [19], in [20] and in series [21] was over 100 µg/mL throughout.

A word on the inhibition: it is the change of the read-out against control, counted positive when it falls.
